The record followed here is publication PMC3328449, “Inhibition of Diacylglycerol–Sensitive TRPC Channels by Synthetic and Natural Steroids” (PLoS ONE, 2012).

The test system of one test is rat aortic rings. The experiment in a line: Isometric force measurement, relaxation of phenylephrine pre-contracted rat aortic rings. Conditions: L-NAME treated, n = 6, read-out: EC50, vasorelaxation of pre-contracted aortic rings. As to the method:
Adult male Wistar-Unilever rats (8–11 weeks old; Harlan Winkelmann, Borchen, Germany) were sacrificed by decapitation. Thoracic aortas were excised quickly, transferred to cold (4°C), carbogen (95% O2 and 5% CO2) bubbled physiological salt solution (119 mM NaCl, 4.7 mM KCl, 1.2 KH2PO4, 1.2 mM MgSO4, 1.6 mM CaCl2, 25 mM NaHCO3, 11 mM glucose) and rinsed. After removal of connective tissue and perivascular fat aortas were dissected in 5 mm rings, connected to force transducers and equilibrated in carbogen bubbled physiological salt solution at 37°C for 15 min. Aortic rings were set at 1000 mg passive tension and contractile forces were then measured isometrically using standard bath procedures as described earlier. […]
For statistical analysis, analysis of variance was performed with Origin 6.0 software (Microcal Software Inc., Northampton, USA). […] IC50 were calculated with SigmaPlot (Systat software, San Jose, USA) using the sigmoidal Hill-model: f = 100 (C^n/(IC50 ^n+C^n)); where f is the inhibition, C is the applied drug concentration and n is the Hill coefficient. The half maximal effective concentration (EC50) of norgestimate-induced vasorelaxation was calculated analogously with R = y0+y1C^n/(EC50 ^n+C^n); where R is relaxation, yo and y1 are constants, C is the applied drug concentration and n is the Hill coefficient. Averaged data is expressed as means ± SEM.

The target of the next test is T1, mTRPC4ß (Mus musculus, UniProt Q9QUQ5).
T1 construct: expressed in transfected cells
T1 sequence (Q9QUQ5 1-890 isoform Q9QUQ5-2): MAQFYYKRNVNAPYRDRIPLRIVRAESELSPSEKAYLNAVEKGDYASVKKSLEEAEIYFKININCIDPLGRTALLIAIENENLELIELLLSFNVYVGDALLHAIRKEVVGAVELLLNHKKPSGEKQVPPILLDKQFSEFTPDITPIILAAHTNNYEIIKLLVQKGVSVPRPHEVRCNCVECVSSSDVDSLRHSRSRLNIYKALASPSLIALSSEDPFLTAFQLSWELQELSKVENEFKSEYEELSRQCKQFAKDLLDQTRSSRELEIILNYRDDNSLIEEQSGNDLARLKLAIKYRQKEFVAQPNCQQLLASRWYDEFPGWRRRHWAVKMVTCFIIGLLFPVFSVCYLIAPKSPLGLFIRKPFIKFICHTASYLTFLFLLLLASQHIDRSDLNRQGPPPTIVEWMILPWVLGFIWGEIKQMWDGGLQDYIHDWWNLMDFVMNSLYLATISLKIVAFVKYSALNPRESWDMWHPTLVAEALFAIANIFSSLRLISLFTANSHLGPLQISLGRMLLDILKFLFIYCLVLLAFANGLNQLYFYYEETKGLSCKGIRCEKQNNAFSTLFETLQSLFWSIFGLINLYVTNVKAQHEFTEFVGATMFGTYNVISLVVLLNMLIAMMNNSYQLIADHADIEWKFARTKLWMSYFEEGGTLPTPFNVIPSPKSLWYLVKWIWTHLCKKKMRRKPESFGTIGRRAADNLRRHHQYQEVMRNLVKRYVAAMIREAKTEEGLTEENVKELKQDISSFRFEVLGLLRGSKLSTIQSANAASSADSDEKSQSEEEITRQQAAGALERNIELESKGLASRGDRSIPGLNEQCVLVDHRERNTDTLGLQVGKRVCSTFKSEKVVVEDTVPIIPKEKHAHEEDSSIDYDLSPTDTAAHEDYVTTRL
The experiment in a line: Whole-cell patch clamp, TRPC4 currents. The class given is cell-based. To be noted: 10 µM; not separable from current run-down. On the procedure:
Cells were grown at 37°C in a humidified atmosphere (5% or 7% CO2) under standard cell culture conditions. Stable human embryonic kidney (HEK) cell lines expressing recombinant mTRPC4ß (GenBank accession number AAC05178); mTRPC5 (GenBank accession number NM_009428) or hTRPC6 (GenBank accession number AF080394) under the control of a tetracycline-inducible promoter were generated using the Flp-In T-Rex (FITR) system (Invitrogen, Karlsruhe, Germany). TRPC4/5/6 HEK-FITR cells were maintained in Dulbecco's modified eagle medium (DMEM, with glutaMAX I, 4.5 g/l glucose and […] sodium pyruvate) supplemented with 10% (v/v) fetal bovine serum (Biochrom, Berlin, Germany), 1 mM glutamine, 1 mM MEM sodium pyruvate, 40 µg/ml hygromycin (50 µg/ml for mTRPC5 HEK-FITR cells), and 15 µg/ml blasticidine HCl. Channel expression was induced by supplementing the growth medium for 18–24 h with 1 µg/ml doxycycline.
The whole-cell patch clamp technique was employed to measure ion currents from single cells. […]
Cells grown on poly-L-lysine-coated coverslips were continuously superfused with extracellular solution and substances were applied using an ALA BPS-8 perfusion system (ALA Scientific Instruments, Westbury, USA). […] Cells were held at −70 mV, and current-voltage (I–V) relationships were routinely measured every 2 or 3 s by applying voltage ramps (180 ms) from −100 mV to +80 mV. […]

As to `C#C[C@]1(OC(C)=O)CC[C@H]2[C@@H]3CCC4=CC(=NO)CC[C@@H]4[C@H]3CC[C@@]21CC` (mixture of isomers) [norgestimate], in the test on rat aortic rings, the EC50 (in general, the midpoint of the concentration-response curve) was determined as 8.19 µM. At mTRPC4ß, the “Effect on TRPC4 currents” value is given as “apparently small, irreversible”.
